According to US9718762B2, “Insecticidal compounds” (Syngenta Participations AG, priority 2013, dated 2017):

Experiments:
Type in all cases: in vivo
[1] = test system: Spodoptera littoralis; assay: Spodoptera littoralis (Egyptian cotton leafworm) cotton leaf disc spray test; settings: foliar, 72 h, 200 ppm spray on cotton leaf discs, L1 larvae, 3 days after treatment, mortality, feeding behavior, growth regulation
Excerpt: Spodoptera littoralis (Egyptian Cotton Leafworm): Cotton leaf discs were placed on agar in a 24-well microtiter plate and sprayed with test solutions at an application rate of 200 ppm. After drying, the leaf discs were infested with 5 L1 larvae. The samples were checked for mortality, feeding behavior, and growth regulation 3 days after treatment (DAT).

[2] = test system: Heliothis virescens; assay: Heliothis virescens (tobacco budworm) egg test on artificial diet; settings: 96 h, 200 ppm (concentration in well 18 ppm), eggs on artificial diet, 4 days, egg mortality, larval mortality, growth regulation
Procedure: Heliothis virescens (Tobacco Budworm): Eggs (0-24 h old) were placed in 24-well microtiter plate on artificial diet and treated with test solutions at an application rate of 200 ppm (concentration in well 18 ppm) by pipetting. After an incubation period of 4 days, samples were checked for egg mortality, larval mortality, and growth regulation.

[3] = test system: Plutella xylostella; assay: Plutella xylostella (diamond back moth) artificial diet test; settings: 144 h, 200 ppm (concentration in well 18 ppm), L2 larvae, 6 days, larval mortality, growth regulation
Procedure: (§1) Plutella xylostella (Diamond Back Moth): 24-well microtiter plate (MTP) with artificial diet was treated with test solutions at an application rate of 200 ppm (concentration in well 18 ppm) by pipetting. After drying, the MTP's were infested with L2 larvae (7-12 per well). After an incubation period of 6 days, samples were checked for larval mortality and growth regulation.

[4] = test system: Diabrotica balteata; assay: Diabrotica balteata (corn root worm) artificial diet test; settings: 120 h, 200 ppm (concentration in well 18 ppm), L2 larvae, 5 days, larval mortality, growth regulation
Procedure: as §1, with “Diabrotica balteata (Corn Root Worm): A” for “Plutella xylostella (Diamond Back Moth):”, “(6-10” for “(7-12”, “5” for “6”

[5] = test system: Thrips tabaci; assay: Thrips tabaci (onion thrips) sunflower leaf disc spray test; settings: foliar, 168 h, 200 ppm spray on sunflower leaf discs, population of mixed ages, 7 days, mortality
Procedure: (§2) Thrips tabaci (Onion Thrips): Sunflower leaf discs were placed on agar in a 24-well microtiter plate and sprayed with test solutions at an application rate of 200 ppm. After drying, the leaf discs were infested with an […] population of mixed ages. After an incubation period of 7 days, samples were checked for mortality.

[6] = test system: Tetranychus urticae; assay: Tetranychus urticae (two-spotted spider mite) bean leaf disc spray test; settings: foliar, 192 h, 200 ppm spray on bean leaf discs, mite populations of mixed ages, 8 days, egg, larval and adult mortality
Excerpt: Tetranychus urticae (Two-Spotted Spider Mite): Bean leaf discs on agar in 24-well microtiter plates were sprayed with test solutions at an application rate of 200 ppm. After drying, the leaf discs are infested with mite populations of mixed ages. 8 days later, discs are checked for egg mortality, larval mortality, and adult mortality.

[7] = test system: Myzus persicae; assay: Myzus persicae (green peach aphid) sunflower leaf disc spray test; settings: foliar, 144 h, 200 ppm spray on sunflower leaf discs, aphid population of mixed ages, 6 DAT, mortality
Procedure: as §2, with “Myzus persicae (Green Peach Aphid):” for “Thrips tabaci (Onion Thrips):”, “6 DAT,” for “7 days,”

Measured: pest or weed control at 200 ppm

CCN(C(=O)c1ccc(C#N)cc1)c1cccc(C(=O)Nc2c(Cl)cc(C(F)(C(F)(F)F)C(F)(F)F)cc2Br)c1OC [Compound 1, N-[2-bromo-6-chloro-4-[1,1,1,2,3,3,3-heptafluoro-prop-2-yl]phenyl]-3-[(4-cyanobenzoyl)-ethyl-amino]-2-methoxy-benzamide]
≥ 80%: all assays above

CCN(C(=O)c1ccc(C#N)cc1)c1cccc(C(=O)Nc2c(Cl)cc(C(F)(C(F)(F)F)C(F)(F)F)cc2Cl)c1OC [Compound 2]
≥ 80%: all assays above

CCc1cc(C(F)(C(F)(F)F)C(F)(F)F)cc(C)c1NC(=O)c1cccc(N(CC)C(=O)c2ccc(C#N)cc2)c1OC [Compound 3]
≥ 80%: all assays above

COc1c(C(=O)Nc2c(Cl)cc(C(F)(C(F)(F)F)C(F)(F)F)cc2Br)cccc1N(C)C(=O)c1ccc(C#N)cc1 [Compound 4]
≥ 80%: all assays above

CCN(C(=O)c1ccc(C#N)cc1)c1cccc(C(=O)Nc2c(Br)cc(C(F)(C(F)(F)F)C(F)(F)F)cc2Br)c1OC [Compound 5]
≥ 80%: all assays above

COc1c(C(=O)Nc2c(Br)cc(C(F)(C(F)(F)F)C(F)(F)F)cc2Br)cccc1N(C)C(=O)c1ccc(C#N)cc1 [Compound 6]
≥ 80%: all assays above

COc1c(C(=O)Nc2c(Cl)cc(C(F)(C(F)(F)F)C(F)(F)F)cc2Cl)cccc1N(C)C(=O)c1ccc(C#N)cc1 [Compound 7]
≥ 80%: all assays above

CCc1cc(C(F)(C(F)(F)F)C(F)(F)F)cc(Br)c1NC(=O)c1cccc(N(CC)C(=O)c2ccc(C#N)cc2)c1 [Compound 8]
not listed: [1]
≥ 80%: all other assays above

CCc1cc(C(F)(C(F)(F)F)C(F)(F)F)cc(CC)c1NC(=O)c1cccc(N(CC)C(=O)c2ccc(C#N)cc2)c1OC [Compound 9]
≥ 80%: all assays above

CCc1cc(C(F)(C(F)(F)F)C(F)(F)F)cc(Br)c1NC(=O)c1cccc(N(C)C(=O)c2ccc(C#N)cc2)c1OC [Compound 10]
≥ 80%: all assays above

CCc1cc(C(F)(C(F)(F)F)C(F)(F)F)cc(Cl)c1NC(=O)c1cccc(N(C)C(=O)c2ccc(C#N)cc2)c1OC [Compound 11]
≥ 80%: all assays above

CCc1cc(C(F)(C(F)(F)F)C(F)(F)F)cc(Cl)c1NC(=O)c1cccc(N(CC)C(=O)c2ccc(C#N)cc2)c1OC [Compound 12]
≥ 80%: all assays above
